Measurements taken from patent publication US8377939B2, “Oxadiazole derivatives and their use as metabotropic glutamate receptor potentiators 842” (AstraZeneca AB, priority 2007, dated 2013).
In brackets after ≈: the same amount, converted by molar mass.

Assays:
[1] = biological target: T1, human mGluR2 (Homo sapiens, UniProt Q14416); experiment: [35S]-GTPγS binding assay, allosteric activator activity with CHO cell membranes; type: biochemical; details: membranes of CHO cells expressing human mGluR2, 1 μM glutamate; read-out: GTPgS EC50
T1 construct: expressed in transfected cells; host or cells: CHO cells, stably transfected; membranes
T1 sequence (Q14416 19-872): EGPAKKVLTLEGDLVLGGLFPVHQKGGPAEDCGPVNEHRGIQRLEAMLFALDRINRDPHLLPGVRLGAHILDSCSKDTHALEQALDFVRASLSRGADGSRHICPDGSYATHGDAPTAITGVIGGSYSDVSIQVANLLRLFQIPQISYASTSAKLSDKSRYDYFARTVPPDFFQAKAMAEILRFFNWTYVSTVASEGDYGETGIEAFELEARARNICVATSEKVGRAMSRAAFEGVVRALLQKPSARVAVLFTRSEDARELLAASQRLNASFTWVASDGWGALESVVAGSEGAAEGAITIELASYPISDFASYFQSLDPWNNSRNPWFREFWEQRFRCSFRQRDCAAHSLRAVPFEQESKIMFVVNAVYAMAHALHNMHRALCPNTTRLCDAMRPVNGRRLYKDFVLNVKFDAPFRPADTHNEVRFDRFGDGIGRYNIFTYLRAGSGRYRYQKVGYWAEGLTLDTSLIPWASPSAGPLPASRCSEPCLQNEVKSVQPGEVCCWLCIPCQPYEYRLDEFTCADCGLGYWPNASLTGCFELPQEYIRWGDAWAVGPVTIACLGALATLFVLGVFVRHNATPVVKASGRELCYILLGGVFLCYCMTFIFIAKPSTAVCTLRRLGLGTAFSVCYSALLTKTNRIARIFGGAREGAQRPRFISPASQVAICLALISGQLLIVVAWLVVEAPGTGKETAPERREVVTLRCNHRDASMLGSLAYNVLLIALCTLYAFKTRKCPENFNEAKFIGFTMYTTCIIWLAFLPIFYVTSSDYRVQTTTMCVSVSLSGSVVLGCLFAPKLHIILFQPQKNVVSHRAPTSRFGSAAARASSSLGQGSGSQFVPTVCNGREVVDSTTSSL
Description: A [^35S]-GTPγS binding assay was used to functionally assay mGluR2 receptor activation. The allosteric activator activity of compounds at the human mGluR2 receptor were measured using a [^35S]-GTPγS binding assay with membranes prepared from CHO cells which stably express the human mGluR2. The assay is based upon the principle that agonists bind to G-protein coupled receptors to stimulate GDP-GTP exchange at the G-protein. Since [^35S]-GTPγS is a non-hydrolyzable GTP analog, it can be used to provide an index of GDP-GTP exchange and, thus, receptor activation. The GTPγS binding assay therefore provides a quantitative measure of receptor activation.
Membranes were prepared from CHO cells stably transfected with human mGluR2. Membranes (30 μg protein) were incubated with test compound (3 nM to 300 μM) for 15 minutes at room temperature prior to the addition of 1 μM glutamate, and incubated for 30 min at 30° C. in 500 μl assay buffer (20 mM HEPES, 100 mM NaCl, 10 mM MgCl2), containing 30 μM GDP and 0.1 nM [^35S]-GTPγS (1250 Ci/mmol). Reactions were carried out in triplicate in 2 ml polypropylene 96-well plates. Reactions were terminated by vacuum filtration using a Packard 96-well harvester and Unifilter-96, GF/B filter microplates. The filter plates were washed 4×1.5 ml with ice-cold wash buffer (10 mM sodium phosphate buffer, pH 7.4). The filter plates were dried and 35 μl of scintillation fluid (Microscint 20) was added to each well. The amount of radioactivity bound was determined by counting plates on the Packard TopCount. Data was analyzed using GraphPad Prism, and EC50 and Emax values (relative to the maximum glutamate effect) were calculated using non-linear regression.

[2] = Aqueous solubility in pH 7.4 phosphate buffer; type: physicochemical; details: thermodynamic from solid, equilibration 24 h at 25° C.
Description: Solubility was determined in pH 7.4 phosphate buffer after equilibration for 24 h at 25° C. and HPLC-UV and LC-MSMS were used for quantitation.

[3] = biological target: hERG ion channel (Homo sapiens, UniProt Q12809); experiment: hERG activity (process of Bridgland-Taylor et al.); type: cell-based
hERG ion channel, sequence (Q12809 whole entry): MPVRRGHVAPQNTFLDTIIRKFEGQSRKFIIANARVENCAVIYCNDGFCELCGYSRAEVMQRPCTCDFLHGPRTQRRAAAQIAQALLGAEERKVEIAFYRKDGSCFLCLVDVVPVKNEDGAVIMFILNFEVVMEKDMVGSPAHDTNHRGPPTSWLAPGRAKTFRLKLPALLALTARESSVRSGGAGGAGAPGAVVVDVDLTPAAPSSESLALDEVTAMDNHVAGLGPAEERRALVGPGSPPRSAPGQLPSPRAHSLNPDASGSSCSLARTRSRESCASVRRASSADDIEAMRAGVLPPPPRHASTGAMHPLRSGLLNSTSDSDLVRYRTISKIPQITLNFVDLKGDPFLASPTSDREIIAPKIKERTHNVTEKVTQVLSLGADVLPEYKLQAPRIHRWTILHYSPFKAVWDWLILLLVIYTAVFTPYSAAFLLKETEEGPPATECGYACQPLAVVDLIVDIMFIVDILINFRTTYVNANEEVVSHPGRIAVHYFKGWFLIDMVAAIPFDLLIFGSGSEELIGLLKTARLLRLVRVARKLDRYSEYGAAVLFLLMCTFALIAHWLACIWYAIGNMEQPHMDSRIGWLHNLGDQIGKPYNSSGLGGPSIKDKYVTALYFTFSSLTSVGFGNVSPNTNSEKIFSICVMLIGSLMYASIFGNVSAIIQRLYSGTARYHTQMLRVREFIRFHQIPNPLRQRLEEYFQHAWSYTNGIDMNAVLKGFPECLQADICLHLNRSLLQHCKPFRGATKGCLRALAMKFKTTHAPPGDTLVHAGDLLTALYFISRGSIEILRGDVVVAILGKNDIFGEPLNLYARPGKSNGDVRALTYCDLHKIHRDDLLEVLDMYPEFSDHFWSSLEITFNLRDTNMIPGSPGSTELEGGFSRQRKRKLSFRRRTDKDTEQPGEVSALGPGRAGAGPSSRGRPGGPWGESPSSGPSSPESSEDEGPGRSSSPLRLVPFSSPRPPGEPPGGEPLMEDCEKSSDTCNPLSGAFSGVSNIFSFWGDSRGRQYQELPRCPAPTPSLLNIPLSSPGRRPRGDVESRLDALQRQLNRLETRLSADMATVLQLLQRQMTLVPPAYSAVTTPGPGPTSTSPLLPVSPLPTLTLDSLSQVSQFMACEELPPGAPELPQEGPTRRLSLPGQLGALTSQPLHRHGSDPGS
Description: hERG activity was assessed using the process described by Bridgland-Taylor, M. H., et al, J. Pharm. Tox. Methods 54 (2006) 189-199.

SMILES | EC50 [1] [nM] | solubility at 24 h [2] [µM] | hERG [3] [µM]
Cc1cc(-c2nc(CN3CCNCC3)no2)cc2c1C(=O)N(Cc1ccc(Cl)cc1)C2 [Example 4, 2-(4-Chloro-benzyl)-7-methyl-5-(3-piperazin-1-ylmethyl-[1,2,4]oxadiazol-5-yl)-2,3-dihydro-isoindol-1-one] | 378 | > 500 | 25.0
Cc1cc(-c2nc(CN3CCNCC3)no2)cc2c1C(=O)N(Cc1ccc(OC(F)(F)F)cc1)C2 [Example 1, 7-Methyl-5-(3-piperazin-1-ylmethyl-[1,2,4]oxadiazol-5-yl)-2-(4-trifluoromethoxybenzyl)-2,3-dihydroisoindol-1-one] |  | 44.9 (≈ 21.9 µg/mL) | 11.0
Cc1cc(-c2nc(CN3CCNC[C@@H]3C)no2)cc2c1C(=O)N(Cc1ccc(Cl)cc1)C2 [Example 5, 2-(4-Chloro-benzyl)-7-methyl-5-[3-(2-methyl-piperazin-1-ylmethyl)-[1,2,4]oxadiazol-5-yl]-2,3-dihydro-isoindol-1-one] | 352 | 384 (≈ 174 µg/mL) | 12.6

Further molecules by falling EC50 [1], results first:

EC50 [1] [nM] | solubility at 24 h [2] [µM] | SMILES | hERG [3] [µM]
317 | > 500 | Cc1cc(-c2nc(CN3CCNC[C@H]3C)no2)cc2c1C(=O)N(Cc1ccc(Cl)cc1)C2 [Example 6, 2-(4-Chloro-benzyl)-7-methyl-5-[3-(2-methyl-piperazin-1-ylmethyl)-[1,2,4]oxadiazol-5-yl]-2,3-dihydro-isoindol-1-one] | 18.7
206 | 336 (≈ 151 µg/mL) | Cc1cc(-c2nc(CN3C[C@@H]4C[C@H]3CN4)no2)cc2c1C(=O)N(Cc1ccc(Cl)cc1)C2 [Example 2, 2-(4-Chloro-benzyl)-5-[3-(2,5-diaza-bicyclo[2.2.1]hept-2-ylmethyl)-[1,2,4]oxadiazol-5-yl]-7-methyl-2,3-dihydro-isoindol-1-one] | 33.0
154 | 396 (≈ 179 µg/mL) | Cc1cc(-c2nc(CN3CCNC(C)C3)no2)cc2c1C(=O)N(Cc1ccc(Cl)cc1)C2 (centres unmarked) [Example 3, 2-(4-Chloro-benzyl)-7-methyl-5-[3-(3-methyl-piperazin-1-ylmethyl)-[1,2,4]oxadiazol-5-yl]-2,3-dihydro-isoindol-1-one] | 12.0
